Source: article PMC6272185 (Molecules, 2015)
In brackets after ≈: the same amount, converted by molar mass. Like-named read-outs stand apart in the source and are kept apart here.

What was measured:
[1] = system: NO production by LPS-stimulated RAW 264.7 macrophages; test: Inhibition of NO production by LPS-stimulated macrophages (Griess); format: cell-based, murine; settings: mean ± SD, n = 3
[2] = system: TNF-α production by LPS-stimulated RAW 264.7 macrophages; test: Inhibition of TNF-α production by LPS-stimulated macrophages (ELISA); format: cell-based, murine; settings: for IC50: Mus musculus, RAW264.7, LPS (1 µg/mL)-stimulated RAW 264.7, 24 h, mean ± SD, n = 3, read-out: IC50 TNF-α
[3] = Macrophage cytotoxicity, LDH release assay; format: cell-based, murine; settings: mouse, RAW 264.7 macrophages stimulated with LPS; LPS-stimulated RAW 264.7, LDH release; mean ± SD, n = 3
M. bovis BCG = test: microbe, parasite or virus in culture; format: cell-based, Mycobacterium bovis BCG; settings: Mycobacterium tuberculosis variant bovis BCG, BCG, 168 h; for MIC50: read-out: MIC50 M. bovis BCG; for MIC90: read-out: MIC90 M. bovis BCG
M. tuberculosis H37Rv = test: microbe, parasite or virus in culture; format: cell-based, Mycobacterium tuberculosis; settings: Mycobacterium tuberculosis
[4] = system: IL-1β production by LPS-stimulated RAW 264.7 macrophages; test: Inhibition of IL-1β production by LPS-stimulated macrophages (ELISA); format: cell-based, murine; settings: for IC50: Mus musculus, RAW264.7, 24 h, read-out: IC50 IL-1β
Protocol: (§1) Murine RAW 264.7 macrophage cell line (American Type Culture Collection, Manassas, VA, USA), was cultured in Dulbecco’s modified Eagle’s medium (DMEM-F12) supplemented with 10% Fetal Bovine Serum (FBS) and gentamicin (50 µg/mL) in 5% CO2 atmosphere at 37 °C. For experiments, the cells were seeded in 96-well plates (1 × 10^5 cells/well) and incubated for 24 h at 37 °C. For macrophage stimulation, the cell cultures were treated with LPS (1 µg/mL) and incubated for additional 24 h in the presence or absence of the chalcone samples (samples 1–41) that were used at concentrations of 100, 20, 4 and 0.8 µg/mL. In some experiments, a nitric oxide (NO) inhibitor, L-NMMA (20 μg/mL), was used as a positive control of NO inhibition, and a non-steroidal anti-inflammatory drug indomethacin, known to inhibit production of prostaglandins, was used as a positive control of PGE2 inhibition.
(§2) The frozen culture supernatants samples were thawed and immediately analyzed using commercially available enzyme-linked immunosorbent assay (ELISA) kits to measure TNF-α, IL-1β (BD Biosciences) and PGE2 (R&D Systems, Minneapolis, MN, USA), according to the manufacturer’s instructions. Standard curves for each mediator were generated using reference cytokine concentrations supplied by the manufacturer. Nitric oxide (NO) generation was assessed by the Griess method to measure nitrites, which are stable breakdown NO products.

[5] = system: PGE2 production by LPS-stimulated RAW 264.7 macrophages; test: Inhibition of PGE2 production by LPS-stimulated macrophages (ELISA); format: cell-based, murine; settings: Mus musculus, RAW264.7, 24 h, read-out: IC50 PGE2
Protocol: as §1, §2

[6] = Mus musculus, RAW264.7, 24 h, LPS (1 µg/mL)-stimulated RAW 264.7, 24 h, read-out: IC50 NO
[7] = H37RV, 120 h, read-out: MIC50 M. tuberculosis H37Rv
[8] = LPS (1 µg/mL)-stimulated RAW 264.7, 24 h, read-out: IC50 NO
[9] = Mus musculus, RAW264.7, 24 h, read-out: IC50 NO, LPS (1 µg/mL)-stimulated RAW 264.7, 24 h
[10] = Table 5, same values as M. tuberculosis H37Rv in Table 3, read-out: MIC50

| Compound | IC50 [1, 6] [µM] | IC50 [2] [µM] | IC50 [3] [µM] | MIC50 (M. bovis BCG) [µM] | MIC90 (M. bovis BCG) [µM] | MIC90 (M. tuberculosis H37Rv; H37RV, 120 h) [µM] | MIC50 (M. tuberculosis H37Rv; [7]) [µM] | IC50 [1, 8] [µM] | IC50 [1, 9] [µM] | IC50 [4] [µM] | IC50 [5] [µM] | MIC50 (M. tuberculosis H37Rv; [10]) [µM] | inhibition of TNF-α ([2]; LPS-stimulated RAW 264.7) | inhibition of IL-1β ([4]; LPS-stimulated RAW 264.7) |
| --- | --- | --- | --- | --- | --- | --- | --- | --- | --- | --- | --- | --- | --- | --- |
| COc1ccc(/C=C/C(=O)c2ccc(Br)cc2)cc1OC [Chalcone 14] | 58.9 ± 6.8 | > 288 | > 288 | > 288 | > 288 | – | – | – | – | – | – | – | – | – |
| COc1ccc(/C=C/C(=O)c2ccccc2Cl)cc1OC [Chalcone 36] | 188 ± 4.1 | > 330 | > 330 | 270 ± 3.9 (≈ 81.6 µg/mL) | > 330 | – | – | – | – | – | – | – | – | – |
| O=C(/C=C/c1ccccn1)c1ccccc1 [Chalcone 7] | > 478 | > 478 | > 478 | 35.8 ± 7.2 (≈ 7.49 µg/mL) | 441 ± 9.5 (≈ 92.2 µg/mL) | > 478 | > 478 | – | – | – | – | – | – | – |
| O=C(/C=C/c1ccc2c(c1)OCO2)c1ccc(Br)cc1 [Chalcone 12] | – | > 302 | > 302 | 84.9 ± 4.7 (≈ 28.1 µg/mL) | 229.6 ± 2.2 (≈ 76 µg/mL) | – | – | 19.6 ± 3.3 | < 21 | > 302 | 50.3 ± 0.3 | – | – | – |
| COc1ccc(/C=C/C(=O)c2ccc(C)cc2)cc1 [Chalcone 21] | 30.6 ± 4.7 | > 396 | > 396 | 33.3 ± 5.4 (≈ 8.4 µg/mL) | 362 ± 5.9 (≈ 91.4 µg/mL) | 368 ± 5.2 (≈ 92.9 µg/mL) | 66.9 ± 6.2 (≈ 16.9 µg/mL) | – | – | > 396 | 50.1 ± 1 | 66.9 ± 6.2 (≈ 16.9 µg/mL) | – | – |
| Cc1ccc(C(=O)/C=C/c2ccccc2)cc1 [Chalcone 16] | > 450 | > 450 | > 450 | > 450 | > 450 | – | – | – | – | – | – | – | – | – |
| Cc1ccc(C(=O)/C=C/c2ccc(Cl)cc2)cc1 [Chalcone 18] | 150 ± 3.8 | > 390 | 304 ± 4.2 | 71.3 ± 4.8 (≈ 18.3 µg/mL) | 323 ± 7.1 (≈ 83 µg/mL) | – | – | – | – | – | – | – | – | – |
| O=C(/C=C/c1ccc([N+](=O)[O-])cc1)c1ccccc1 [Chalcone 37] | 58.6 ± 4.5 | > 395 | > 395 | > 395 | > 395 | – | – | – | – | > 395 | 322 ± 3.7 | – | – | – |
| Cc1ccc(C(=O)/C=C/c2ccc3c(c2)OCO3)cc1 [Chalcone 20] | 30.1 ± 1.2 | > 376 | > 376 | > 376 | > 376 | – | – | – | – | > 376 | 147.4 ± 1.2 | – | – | – |
| COc1ccc(/C=C/C(=O)c2ccc(Br)cc2)cc1 [Chalcone 13] | 52.9 ± 3.6 | > 315 | > 315 | 221 ± 3.6 (≈ 70 µg/mL) | > 315 | – | – | – | – | – | – | – | – | – |
| COc1ccc(C(=O)/C=C/c2ccc3c(c2)OCO3)cc1 [Chalcone 28] | – | > 354 | > 354 | > 354 | > 354 | – | – | 14.9 ± 4.1 | < 21 | > 354 | 22.1 ± 0.63 | – | – | – |
| COc1ccc(C(=O)/C=C/c2ccc(N(C)C)cc2)cc1 [Chalcone 27] | 44.6 ± 5.2 | > 355 | 226 ± 3.5 | 309 ± 5 (≈ 86.9 µg/mL) | > 355 | – | – | – | – | – | – | – | – | – |
| COc1ccc(C(=O)/C=C/c2ccc([N+](=O)[O-])cc2)cc1 [Chalcone 40] | – | > 353 | > 353 | 14.5 ± 3.1 (≈ 4.11 µg/mL) | > 353 | 352 ± 5.9 (≈ 99.7 µg/mL) | 131.7 ± 1.3 (≈ 37.3 µg/mL) | 13.5 ± 5.5 | < 21 | > 353 | > 413 | 131.7 ± 1.3 (≈ 37.3 µg/mL) | – | – |
| O=C(/C=C/c1ccc([N+](=O)[O-])cc1)c1ccccc1Cl [Chalcone 41] | – | 68.5 ± 3.3 | > 348 | 30.5 ± 4.7 (≈ 8.77 µg/mL) | 247 ± 7.2 (≈ 71 µg/mL) | 275 ± 6.7 (≈ 79.2 µg/mL) | 82.1 ± 4.3 (≈ 23.6 µg/mL) | 11.2 ± 5 | < 21 | 13.5 ± 3.9 | 67.4 ± 2.2 | 82.1 ± 4.3 (≈ 23.6 µg/mL) | strongly inhibit | potent inhibitors |
| O=C(/C=C/c1ccccc1)c1ccccc1 [Chalcone 1, 1,3-diphenyl-2-propenone, reference compound] | 41.6 ± 2 | > 480 | 177 ± 9.5 | 137 ± 4.7 (≈ 28.6 µg/mL) | 383 ± 9.1 (≈ 79.8 µg/mL) | – | – | – | – | – | – | – | – | – |
